Assay results: patent publication US6723754B2, “Use of COMT inhibitors as analgesics” (Orion Corporation, priority 2000, dated 2004)
Marks after values point to notes of the source that are not given here.

Experiments:
[1] = system: acetic acid induced writhing in mice; assay: Acetic acid-induced writhing in mice; format: in vivo; conditions: mouse
Method: (§1) There are several methods for testing analgesic drugs experimentally. […] The inflammation is induced in the rat hind paw by yeast suspension and the pain threshold of the paw is measured. […] In these tests, both the NSAIDs and opioid analgesics are known to be effective. The hot plate test in mice is a test in which only opioid analgesics are effective.
Acetic acid induced writhing test is a widely used screening method for analgesic agents. […] Writing movements were elicited in mice by an i.p. injection of 1% acetic acid in the volume of 0.1 ml/10 g. The mice were placed in individual glass containers for observation. The number of writhes was counted during a period of 20 minutes and recorded every 5 minutes. The test compounds were given 5-60 minutes before the acetic acid.

[2] = system: formation of prostaglandins; conditions: Aho and Linden, Scand.J.Gastroenterol. 1992; cited from earlier work
[3] = system: inflamed paw in rats; assay: Modified Randall-Selitto test (yeast-inflamed hind paw pain threshold); format: in vivo; conditions: rat, one hour before measurement, % of control value
Method: as §1
The effect on inflammatory pain was measured using a modified Randall-Selitto test. 0.1 ml of 20% Brewer's yeast suspension was injected subplantary to the right hind paw of rats under ether anaesthesia to elicit inflammation in the paw. After 3 hours the degree of hyperalgesia was determined with an analgesy-meter by applying a force of increasing magnitude to the inflamed paw with a cone-shaped teflon pusher. The force at which the animals begins to struggle was assumed to represent the pain threshold. The drugs were administered orally 5 ml/kg one hour before the measurement. The increase in pain threshold was calculated as a percentage of the control value.

| SMILES | Inhibition of writhing (%) ([1]; 30 mg/kg i.p.) | Inhibition of writhing (%) ([1]; 50 mg/kg p.o.) | Inhibition of writhing (%) ([1]; 100 mg/kg i.p.) | Inhibition of writhing (%) ([1]; 100 mg/kg p.o.) | Effect on formation of prostaglandins [2] | Increase in pain threshold (%) ([3]; 0.5 mg/kg p.o.) | Increase in pain threshold (%) ([3]; 1 mg/kg p.o.) | Increase in pain threshold (%) ([3]; 3 mg/kg p.o.) | Increase in pain threshold (%) ([3]; 10 mg/kg p.o.) | Increase in pain threshold (%) ([3]; 30 mg/kg p.o.) | Inhibition of writhing (%) ([1]; 3 mg/kg i.v.) | Inhibition of writhing (%) ([1]; 10 mg/kg i.v.) | Inhibition of writhing (%) ([1]; 1 mg/kg i.p.) | Inhibition of writhing (%) ([1]; 2 mg/kg p.o.) | Inhibition of writhing (%) ([1]; 6 mg/kg p.o.) |
| --- | --- | --- | --- | --- | --- | --- | --- | --- | --- | --- | --- | --- | --- | --- | --- |
| CC(=O)C(=Cc1cc(O)c(O)c([N+](=O)[O-])c1)C(C)=O [Nitecapone, 3-(3,4-dihydroxy-5-nitrophenyl)methylene-2,4-pentanedione] | 37* % | 15* % | 76* % | 21** % | stimulate the formation of prostaglandins | 13 | 58* % | 46* % | 45* % | – | – | – | – | – | – |
| O=[N+]([O-])c1cc(O)c(O)c([N+](=O)[O-])c1 [3,5-dinitrocatechol] | – | 36** % | – | 22** % | – | – | 49* % | 49* % | – | 65* % | – | – | – | – | – |
| CCN(CC)C(=O)/C(C#N)=C/c1cc(O)c(O)c([N+](=O)[O-])c1 [Entacapone, (E)-2-cyano-3-(3,4-dihydroxy-5-nitrophenyl)-N,N-diethyl-2-propenamide] | – | – | – | 24% | – | – | – | – | 62% | 64% | 14 | 38* % | – | – | – |
| CC(=O)c1cc(O)c(O)c([N+](=O)[O-])c1 [3′,4′-dihydroxy-5′-nitroacetophenone] | – | 28** % | – | 43** % | – | – | – | 45% | 68** % | 62* % | – | – | – | – | – |
| COc1ccc2c(c1)c(CC(=O)O)c(C)n2C(=O)c1ccc(Cl)cc1 [Indomethacin, indomethacin] | – | – | – | – | – | – | 54* % | – | – | – | – | – | 38* % | 18* % | 42** % |
